By IC50 is commonly meant the concentration that inhibits the measured activity by half.

For one assay, the target named is T1, PKC isoenzyme ε (Homo sapiens, UniProt Q02156).
T1 construct: made in house; host or cells: baculovirus-insect cell expression system
T1 sequence (Q02156 1-737): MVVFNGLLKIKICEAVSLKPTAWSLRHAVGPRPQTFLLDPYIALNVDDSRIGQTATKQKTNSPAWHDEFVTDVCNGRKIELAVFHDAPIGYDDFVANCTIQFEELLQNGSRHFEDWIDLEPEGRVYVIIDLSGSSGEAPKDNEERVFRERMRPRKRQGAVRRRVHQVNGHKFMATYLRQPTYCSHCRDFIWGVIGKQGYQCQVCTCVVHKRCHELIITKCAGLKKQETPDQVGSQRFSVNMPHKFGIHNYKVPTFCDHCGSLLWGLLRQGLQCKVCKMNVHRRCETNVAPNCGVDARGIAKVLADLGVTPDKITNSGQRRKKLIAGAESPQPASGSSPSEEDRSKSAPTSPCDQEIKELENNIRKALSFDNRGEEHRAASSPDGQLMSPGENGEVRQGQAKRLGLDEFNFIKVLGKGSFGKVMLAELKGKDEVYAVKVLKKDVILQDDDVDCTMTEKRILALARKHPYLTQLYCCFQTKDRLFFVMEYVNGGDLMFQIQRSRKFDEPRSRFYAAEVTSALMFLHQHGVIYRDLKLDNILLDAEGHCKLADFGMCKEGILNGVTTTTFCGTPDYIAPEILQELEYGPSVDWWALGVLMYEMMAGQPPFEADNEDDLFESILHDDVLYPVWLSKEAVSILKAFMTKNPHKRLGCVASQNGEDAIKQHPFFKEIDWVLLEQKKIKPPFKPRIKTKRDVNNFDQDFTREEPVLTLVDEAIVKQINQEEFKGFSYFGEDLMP
Nature of the assay: Protein kinase C inhibition assay, PKC isoenzyme ε. It is filed as biochemical. Here is the method:
A protein kinase C (PKC) assay is designed to duplicate the in vivo conditions required for protein kinase C function. Therefore, pH, salt and cofactor concentrations are similar to physiologic levels. Either lysine rich histone H1 (H1) or Myelin basic protein (Mbp) are used in the assay as the phosphorylation acceptor-protein because they are readily available and serve as good substrates for protein kinase C. Enzyme was prepared from baculovirus-insect cell expression systems.
In the screening assay, phosphatidylserine (PS) and DAG were co-sonicated to form unilamellar and multilamellar vesicles. The concentration of lipids in the assay were suboptimal to maximize the detection potential of the assay for inhibitors or activators. Potential effector compounds were added to the assay in dimethylsulfoxide at four concentrations to give final inhibitor concentrations of 1, 10, 50, and 150 μM, respectively.
The assay was started with the addition of enzyme and stopped after 10 min by the addition of 25% trichloroacetic acid (TCA) and 1.0 mg/ml bovine serum albumin (BSA). The radioactive histone product was retained and washed on glass fiber filters that allow the unreacted P-ATP to pass through. The amount of phosphorylation was determined by measuring radioactivity with a scintillation counter. Controls were included in every assay to measure background activity in the absence of enzyme, activity in the absence of lipids, and the maximum enzyme activity with saturating levels of the activator lipids.
Results of the protein kinase C assay are shown in Table 4 in columns labeled α, βII, γ, δ, ε, and .zeta. which represent various PKC isoenzymes. Results are show as IC50, which is the concentration of test compound needed to inhibit 50% of the protein kinase C activity in controls.

Assay [1] has as its target cAMP dependent protein kinase (PKA). The assay is described as follows: cAMP Dependent Protein Kinase (PKA) Assay. It is filed as biochemical. Particulars: for IC50: catalytic subunit of PKA; for effect on PKA activity: result in words. The procedure: Compounds found to be inhibitors of protein kinase C were tested for inhibitory activity against cAMP dependent protein kinase (PKA). This enzyme, like protein kinase C, plays an important role in cell-cell communication and is activated by a second messenger, cAMP. Secondary screening against PKA is useful for ascertaining the selectivity of the compounds of the invention.
The catalytic subunit of PKA (Sigma Chemical Company, St. Louis, Mo.) was mixed with buffer before addition of the inhibitor in dimethylsulfoxide (DMSO). Potential inhibitor compounds were added to the assay in dimethylsulfoxide at two concentrations to give final inhibitor concentrations of 30 and 150 μM, respectively. The assay was started by the addition of ^32 P-ATP and the reaction was allowed to proceed for 10 min before stopping with 25% trichloroacetic acid (TCA) and 1.0 mg/ml bovine serum albumin (BSA). Phosphorylated protein was then isolated by filtration and the radioactivity was counted by a beta scintillation counter.

Assay [2] relates to normal human epidermal keratinocyte (NHEK) cells. The assay is described as follows: Human Keratinocyte Inhibition (3H TdR Assay). In kind it is cell-based. As to conditions: 24 h incubation, 3H-thymidine. Here is the method: Proliferating normal human epidermal keratinocyte (NHEK) cells were obtained in the second passage and grown in keratinocyte growth medium, KGM (Clonetics, Inc.) at 37° C., 5% CO2. The cells were trypsinized (0.25%), centrifuged, counted with a hemocytometer, and seeded at a concentration of 5000 cells in 100 μl well in a 96-well microtiter plate.
After the cells were allowed to attach to the microtiter plate overnight, test agents were titrated to determine the dose response. This was done by adding each test agent dilution in quadruplicate to the plate at 2× final concentration in 100 μl to bring the total volume of each well to 200 μl. Culture media with no test agent added was used as a normal control. Duplicate sets of plates were established.
After twenty-four hours of incubation with test compounds 37° C. and 5% CO2, […] of 0.01 mCi/ml tritiated thymidine (New England Nuclear) was added to each well and allowed to incubate for another 4 hours under the same conditions.
Supernatant was aspirated and discarded and […] of 0.05% trypsin (Gibco) was added to each cell. Cells were checked microscopically to determine detachment from surfaces and then harvested onto glass filters. The filters were then placed in vials to which scintillant was added and counted for one minute each in a scintillation counter.
Determine mean cpm of wells containing test agent (n=4) or KGM control (n=16). Calculate % of control by the formula: [formula]
The IC50, or connection necessary to inhibit 50% of control, of each test agent was determined by plotting % control vs log concentration for each dilution and then linear forecasting the 50% control value onto the X axis on a Quatro Pro computer program. Only regression values with a correlation coefficient greater than 0.9 were considered acceptable.

The structures appear in SMILES notation. Like-named read-outs stand apart in the source and are kept apart here.

For `O=C1C(Nc2ccc(S(=O)(=O)NCCNc3ccc([N+](=O)[O-])cn3)cc2)=CC(=Nc2ccc(S(=O)(=O)NCCNc3ccc([N+](=O)[O-])cn3)cc2)c2ccccc21` [Compound 3ac], the IC50 at PKC isoenzyme ε (IC50 PKC ε) is > 150 µM; in assay [1], > 150 µM; in assay [2] (Homo sapiens), 0.08 µM. In assay [1], the “effect on PKA activity” value is reported as “did not effect on PKA activity”.
As to `Cc1cc(C)nc(NS(=O)(=O)c2cccc(N=C3C=C(Nc4cccc(S(=O)(=O)Nc5cc(C)cc(C)n5)c4)C(=O)c4ccccc43)c2)c1` [Compound 3ae], the IC50 at PKC isoenzyme ε (read-out: IC50 PKC ε) was > 150 µM; in assay [1], > 150 µM; in assay [2] (Homo sapiens) it was < 0.39 µM. In assay [1], the “effect on PKA activity” value is given as “did not effect on PKA activity”.
As for `COc1cc(NS(=O)(=O)c2ccc(N=C3C=C(Nc4ccc(S(=O)(=O)Nc5cc(OC)cc(OC)c5)cc4)C(=O)c4ccccc43)cc2)cc(OC)c1` [Compound 3af], the IC50 on PKC isoenzyme ε (read-out: IC50 PKC ε) was 111 µM; in assay [1] it was 62 µM; in assay [2] (Homo sapiens) it was < 0.39 µM.
`Cc1cc(C)nc(NS(=O)(=O)c2cc(N=C3C=C(Nc4ccc(C)c(S(=O)(=O)Nc5cc(C)cc(C)n5)c4)C(=O)c4ccccc43)ccc2C)c1` [Compound 3ag]: at PKC isoenzyme ε (read-out: IC50 PKC ε), the IC50 came to 8 µM. Further, in assay [1], the IC50 was > 150 µM and the “effect on PKA activity” value is listed as “did not effect on PKA activity”.
On to `Cc1cc(C)nc(NC(=O)c2ccc(N=C3C=C(Nc4ccc(C(=O)Nc5cc(C)cc(C)n5)cc4)C(=O)c4ccccc43)cc2)c1` [Compound 3ah], for which the IC50 at PKC isoenzyme ε (read-out: IC50 PKC ε) was > 150 µM; in assay [2] (Homo sapiens), 1.4 µM.
Consider `Cc1cc(C)nc(NC(=O)c2ccc(N=C3C=C(Nc4ccc(C(=O)Nc5nc(C)cc(C)n5)cc4)C(=O)c4ccccc43)cc2)n1` [Compound 3ai], for which the IC50 is > 105 µM on PKC isoenzyme ε (read-out: IC50 PKC ε), > 150 µM in assay [1] and 0.16 µM in assay [2] (Homo sapiens). For the same molecule, the “effect on PKA activity” value in assay [1] is given as “did not effect on PKA activity”.
In the case of `Cc1noc(NS(=O)(=O)c2ccc(N=C3C=C(Nc4ccc(S(=O)(=O)Nc5onc(C)c5C)cc4)C(=O)c4ccccc43)cc2)c1C` [Compound 3b], the figures for the IC50 (at PKC isoenzyme ε (read-out: IC50 PKC ε); in assay [1]; in assay [2] (Homo sapiens)) were 143 µM, > 150 µM and 11.6 µM, respectively. For the same molecule, in assay [1], the “effect on PKA activity” value was “did not effect on PKA activity”.
As for `Cc1cc(C)nc(NS(=O)(=O)c2ccc(N=C3C=C(Nc4ccc(S(=O)(=O)Nc5nc(C)cc(C)n5)cc4)C(=O)c4ccccc43)cc2)n1` [Compound 3c], the IC50 on PKC isoenzyme ε (read-out: IC50 PKC ε) is > 150 µM; in assay [1], > 150 µM; in assay [2], 0.52 µM. In addition, the “effect on PKA activity” value in assay [1] is recorded as “did not effect on PKA activity”.
`Cc1cc(NS(=O)(=O)c2ccc(N=C3C=C(Nc4ccc(S(=O)(=O)Nc5cc(C)nc(C)n5)cc4)C(=O)c4ccccc43)cc2)nc(C)n1` [Compound 3d]: the IC50 is > 150 µM on PKC isoenzyme ε (read-out: IC50 PKC ε), > 150 µM in assay [1] and 2 µM in assay [2] (Homo sapiens). Besides, the “effect on PKA activity” value in assay [1] is given as “did not effect on PKA activity”.
In the case of `Cc1nnc(NS(=O)(=O)c2ccc(N=C3C=C(Nc4ccc(S(=O)(=O)Nc5nnc(C)s5)cc4)C(=O)c4ccccc43)cc2)s1` [Compound 3e], the IC50 is > 150 µM on PKC isoenzyme ε (read-out: IC50 PKC ε), 55 µM in assay [1] and 8.7 µM in assay [2] (Homo sapiens).
Consider `Cc1ccnc(NS(=O)(=O)c2ccc(N=C3C=C(Nc4ccc(S(=O)(=O)Nc5nccc(C)n5)cc4)C(=O)c4ccccc43)cc2)n1` [Compound 3f], for which the IC50 at PKC isoenzyme ε (read-out: IC50 PKC ε) is > 150 µM; in assay [1], 48 µM; in assay [2] (Homo sapiens) it was 1.2 µM.
For the molecule `COc1cc(NS(=O)(=O)c2ccc(N=C3C=C(Nc4ccc(S(=O)(=O)Nc5cc(OC)nc(OC)n5)cc4)C(=O)c4ccccc43)cc2)nc(OC)n1` [Compound 3g], the IC50 is > 150 µM at PKC isoenzyme ε (read-out: IC50 PKC ε), > 150 µM in assay [1] and 0.6 µM in assay [2]. In addition, the “effect on PKA activity” value in assay [1] was “did not effect on PKA activity”.
As for `COc1cnc(NS(=O)(=O)c2ccc(N=C3C=C(Nc4ccc(S(=O)(=O)Nc5ncc(OC)cn5)cc4)C(=O)c4ccccc43)cc2)nc1` [Compound 3h], the IC50 is > 150 µM on PKC isoenzyme ε (read-out: IC50 PKC ε), > 150 µM in assay [1] and 0.9 µM in assay [2] (Homo sapiens). The “effect on PKA activity” value in assay [1] is “did not effect on PKA activity”.
In the case of `COc1cc(NS(=O)(=O)c2ccc(N=C3C=C(Nc4ccc(S(=O)(=O)Nc5cc(OC)cc(OC)c5)cc4)C(=O)c4ccccc43)cc2)cc(OC)c1` [Compound 6af], the IC50 at PKC isoenzyme ε (read-out: IC50 PKC ε) is > 150 µM.
Regarding `Cc1cc(NS(=O)(=O)c2ccc(N=C3C=C(Nc4ccc(S(=O)(=O)Nc5cc(C)nc(C)n5)cc4)C(=O)c4ccccc43)cc2)nc(C)n1` [Compound 6d], in assay [1], the IC50 is > 150 µM and the “effect on PKA activity” value is listed as “did not effect on PKA activity”. In assay [2], this molecule registered a half-maximal inhibitory concentration (IC50) of 2.5 µM.
Turning to `Cc1nnc(NS(=O)(=O)c2ccc(N=C3C=C(Nc4ccc(S(=O)(=O)Nc5nnc(C)s5)cc4)C(=O)c4ccccc43)cc2)s1` [Compound 6e], the values for the IC50 in assay [1] and in assay [2] were 45 µM and 8.6 µM, respectively.
For the molecule `Cc1ccnc(NS(=O)(=O)c2ccc(N=C3C=C(Nc4ccc(S(=O)(=O)Nc5nccc(C)n5)cc4)C(=O)c4ccccc43)cc2)n1` [Compound 6f], the results for the IC50 in assay [1] and in assay [2] were 46 µM and 1.4 µM, respectively.
For `COc1cc(NS(=O)(=O)c2ccc(N=C3C=C(Nc4ccc(S(=O)(=O)Nc5cc(OC)nc(OC)n5)cc4)C(=O)c4ccccc43)cc2)nc(OC)n1` [Compound 6g] the same measures were 47 µM and 1.4 µM.
In the case of `COc1cnc(NS(=O)(=O)c2ccc(N=C3C=C(Nc4ccc(S(=O)(=O)Nc5ncc(OC)cn5)cc4)C(=O)c4ccccc43)cc2)nc1` [Compound 6h], the IC50 in assay [1] is > 150 µM; in assay [2], 1.2 µM. Also, the “effect on PKA activity” value in assay [1] is “did not effect on PKA activity”.
For `O=C1C(Nc2ccc(S(=O)(=O)Nc3ccccn3)cc2)=CC(=Nc2ccc(S(=O)(=O)Nc3ccccn3)cc2)c2ccccc21` [Compound 6i] the same measures were > 150 µM, 7.3 µM and “did not effect on PKA activity”.
For `COc1ccc(NS(=O)(=O)c2ccc(N=C3C=C(Nc4ccc(S(=O)(=O)Nc5ccc(OC)nn5)cc4)C(=O)c4ccccc43)cc2)nn1` [Compound 6j] the same measures were > 150 µM, 0.82 µM and “did not effect on PKA activity”.

The values above are taken from patent US5292737A, “N,N'-bis(sulfonamido)-2-amino-4-iminonaphthalen-1-ones and N,N'-bis(amido)-2-amino-4-iminonaphthalen-1-ones” (Sphinx Pharmaceuticals Corporation, priority 1992, dated 1994).
